Measured values reported in patent US20250092044A1, “Kinase Inhibitors” (Incyte Corporation, priority 2023, published 2025).

Tests used:
[1] = biological target: pseudo-kinase domain (JH2) of human V617F mutant JAK2 (Homo sapiens (Human), UniProt O60674, F794H/V617F/W659A/W777A); assay: JAK2 LanthaScreen JH2-V617F Binding Assay; conditions: read-out: JH2 V617F Bind IC50
Method: JAK2 JH2-V617F binding assay utilizes pseudo-kinase domain (JH2, amino-acids 536-812 with 3 surface mutations W659A, W777A, F794H) of human V617F mutant JAK2 expressed as C-terminal His-Avi-tagged, biotinylated protein in a baculovirus expression system (BPS Bioscience, Catalog #79498). The assay was conducted in black 384-well polystyrene plates in a final reaction volume of 20 μL. JAK2 JH2-V617F (0.26 nM) was incubated with compounds (100 nL serially diluted in DMSO) in the presence of 50 nM Fluorescent JAK2-JH2 Tracer (MedChem Express Catalog #HY-102055) and 0.25 nM Streptavidin-Tb cryptate (Cisbio Part #610SATLB) in assay buffer (50 mM Tris, pH=7.5, 10 mM MgCl2, 0.01% Brij-35, 0.1% BSA, 1 mM EGTA, 5% Glycerol and 5 mM DTT). Non-specific binding was accessed in the presence of 2 mM ATP. After incubation for 1 hour at 25° C., LanthaScreen signals were read on a PHERAstar FS plate reader (BMG LABTECH). Data was analyzed with IDBS XLfit and GraphPad Prism 5.0 software using a four parameter dose response curve to determine IC50 for each compound.

[2] = biological target: catalytic domain (JH1) of human JAK2 (Homo sapiens (Human), UniProt O60674); assay: JAK2 LanthaScreen JH1 Binding Assay; conditions: read-out: JH1 Bind IC50
catalytic domain (JH1) of human JAK2, sequence (O60674 826-1132): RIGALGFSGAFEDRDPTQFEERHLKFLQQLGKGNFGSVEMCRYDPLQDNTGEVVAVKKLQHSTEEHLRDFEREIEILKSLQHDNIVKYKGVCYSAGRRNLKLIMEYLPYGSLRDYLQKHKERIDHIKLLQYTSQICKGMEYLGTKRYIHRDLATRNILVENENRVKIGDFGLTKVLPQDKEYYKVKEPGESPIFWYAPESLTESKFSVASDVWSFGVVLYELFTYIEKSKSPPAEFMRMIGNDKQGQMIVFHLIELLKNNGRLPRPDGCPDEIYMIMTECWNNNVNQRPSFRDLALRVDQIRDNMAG
Method: JAK2 JH1 binding assay utilizes catalytic domain (JH1, amino acids 826-1132) of human JAK2 expressed as N-terminal FLAG-tagged, biotinylated protein in a baculovirus expression system (Carna Biosciences, Product #08-445-20N). The assay was conducted in black 384-well polystyrene plates in a final reaction volume of 20 μL. JAK2 JH1 (1.5 nM) was incubated with compounds (100 nL serially diluted in DMSO) in the presence of 50 nM fluorescent JAK2-JH1 tracer and 0.5 nM Streptavidin-Tb cryptate (Cisbio Part #610SATLB) in assay buffer (50 mM Tris, pH=7.5, 10 mM MgCl2, 0.01% Brij-35, 0.1% BSA, 1 mM EGTA, 5% Glycerol and 5 mM DTT). Non-specific binding was accessed in the presence of 2 mM ATP. After incubation for 2 hours at 25° C., LanthaScreen signals were read on a PHERAstar FS plate reader (BMG LABTECH). Data was analyzed with IDBS XLfit and GraphPad Prism 5.0 software using a four parameter dose response curve to determine IC50 for each compound.

FLT3 [3] = biological target: FLT3 (Homo sapiens (Human), UniProt P36888); assay: FLT3 Enzymatic Assay; type: biochemical; conditions: 1 mM ATP
FLT3 (Homo sapiens (Human), UniProt P36888), sequence (P36888 27-993, species assumed): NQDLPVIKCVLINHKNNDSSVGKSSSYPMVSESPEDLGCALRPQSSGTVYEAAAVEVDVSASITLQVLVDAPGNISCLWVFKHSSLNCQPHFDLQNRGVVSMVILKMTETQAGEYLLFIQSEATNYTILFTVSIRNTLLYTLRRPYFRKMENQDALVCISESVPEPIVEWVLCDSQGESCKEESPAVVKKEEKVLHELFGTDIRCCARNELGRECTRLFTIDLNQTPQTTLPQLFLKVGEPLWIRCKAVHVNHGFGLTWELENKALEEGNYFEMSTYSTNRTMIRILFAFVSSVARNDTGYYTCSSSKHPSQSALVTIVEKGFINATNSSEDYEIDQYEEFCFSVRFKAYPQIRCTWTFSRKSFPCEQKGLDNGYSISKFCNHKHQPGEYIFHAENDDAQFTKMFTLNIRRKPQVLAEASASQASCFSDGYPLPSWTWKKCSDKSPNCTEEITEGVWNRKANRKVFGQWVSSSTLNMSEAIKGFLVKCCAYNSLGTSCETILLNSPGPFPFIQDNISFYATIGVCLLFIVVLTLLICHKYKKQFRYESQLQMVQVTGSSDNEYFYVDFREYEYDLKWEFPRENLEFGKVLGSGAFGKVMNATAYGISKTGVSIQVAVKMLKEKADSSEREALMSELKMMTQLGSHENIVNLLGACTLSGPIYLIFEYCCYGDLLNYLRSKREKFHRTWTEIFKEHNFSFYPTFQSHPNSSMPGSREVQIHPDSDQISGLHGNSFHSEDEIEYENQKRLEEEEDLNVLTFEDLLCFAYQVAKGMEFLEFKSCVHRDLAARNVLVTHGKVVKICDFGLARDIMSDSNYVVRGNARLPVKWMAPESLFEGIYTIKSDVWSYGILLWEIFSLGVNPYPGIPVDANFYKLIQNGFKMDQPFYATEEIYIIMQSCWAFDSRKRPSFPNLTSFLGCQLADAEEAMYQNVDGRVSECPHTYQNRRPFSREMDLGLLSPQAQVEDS
Method: (§1) The kinase assays were carried out at room temperature in assay buffer (HEPES 50 mM, pH 7.0, NaN3 0.02%, BSA 0.01%, Orthovanadate 0.1 mM, DTT 1 mM, MgCl2 10 mM) in a final volume of 10 μL. Testing compounds were prepared by serial dilution in DMSO and transferred to the plate wells by ECHO liquid handler (Labcyte) with 0.5% DMSO in the final assay. […]. Reactions were initiated by the addition of 5 μL ATP in assay buffer. The final 10 μL kinase reaction consists of 0.011 nM FLT3, 1 mM ATP, 500 nM TK Substrate-biotin and SEB reagent 62.5 nM in assay buffer. […] The plates were then sealed and centrifuged at 1800 rpm for 2 minutes. After 60 minutes incubation at room temperature, the product activity was determined by measuring the fluorescence at 620 nm and 665 nm on Pherastar microplate reader (BMG Labtech). A ratio is calculated (665/620 nm) for each well. Wells with DMSO only were served as the positive controls and wells containing no ATP were used as negative controls. IC50 determination was performed by fitting the curve of percent control activity versus the log of the compound concentration using the GraphPad Prism 7.0 software.

FLT3 [4] = assay: FLT3 Enzymatic Assay; type: biochemical
Method: as §1

TRKA [5] = biological target: TRKA (Homo sapiens (Human), UniProt P04629); assay: TRKA Enzymatic Assay; type: biochemical; conditions: 1 mM ATP
TRKA (Homo sapiens (Human), UniProt P04629), sequence (P04629 33-796, species assumed): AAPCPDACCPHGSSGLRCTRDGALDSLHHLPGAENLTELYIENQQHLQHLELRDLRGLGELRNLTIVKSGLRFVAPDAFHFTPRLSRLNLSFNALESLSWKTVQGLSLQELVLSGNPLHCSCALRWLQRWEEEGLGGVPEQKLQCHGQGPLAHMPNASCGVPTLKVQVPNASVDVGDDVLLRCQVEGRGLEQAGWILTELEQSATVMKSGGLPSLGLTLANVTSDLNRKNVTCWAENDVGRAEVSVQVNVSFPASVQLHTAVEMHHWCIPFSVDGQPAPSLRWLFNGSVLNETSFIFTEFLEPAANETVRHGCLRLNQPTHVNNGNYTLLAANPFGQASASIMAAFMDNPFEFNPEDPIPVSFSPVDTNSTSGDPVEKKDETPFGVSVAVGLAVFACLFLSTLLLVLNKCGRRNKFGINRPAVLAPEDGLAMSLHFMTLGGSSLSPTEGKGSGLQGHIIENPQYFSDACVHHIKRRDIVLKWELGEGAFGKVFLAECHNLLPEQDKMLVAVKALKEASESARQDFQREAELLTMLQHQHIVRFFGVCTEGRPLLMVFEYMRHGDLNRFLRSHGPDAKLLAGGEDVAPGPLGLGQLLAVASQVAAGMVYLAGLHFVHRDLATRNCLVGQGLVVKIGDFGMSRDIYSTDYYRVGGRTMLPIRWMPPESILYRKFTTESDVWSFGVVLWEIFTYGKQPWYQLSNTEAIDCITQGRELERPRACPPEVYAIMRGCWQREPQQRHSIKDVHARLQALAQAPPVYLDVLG
Method: (§2) The kinase assays were carried out at 24° C. temperature in assay buffer (HEPES 50 mM, pH 7.0, NaN3 0.02%, BSA 0.01%, Orthovanadate 0.1 mM, DTT 1 mM, MgCl2 10 mM) in a final volume of 10 μL. Testing compounds were prepared by serial dilution in DMSO and transferred to the plate wells by ECHO liquid handler (Labcyte) with 0.5% DMSO in the final assay. […]. Reactions were initiated by the addition of 5 μL ATP in assay buffer. The final 10 μL kinase reaction consisted of 0.58 nM TRKA, 1 mM ATP, 500 nM TK Substrate-biotin and SEB reagent 62.5 nM in assay buffer. […] After 60 minutes incubation at room temperature, the product activity was determined by measuring the fluorescence at 620 nm and 665 nm on Pherastar microplate reader (BMG Labtech). A ratio was calculated (665/620 nm) for each well. Wells with DMSO only served as the positive controls and wells containing no ATP were used as negative controls. IC50 determination was performed by fitting the curve of percent control activity versus the log of the compound concentration using the Gene data.

TRKA [6] = assay: TRKA Enzymatic Assay; type: biochemical
Method: as §2

[7] = tested on: STAT5 (Tyr694) phosphorylation in SET-2 cells; assay: STAT5 (Tyr694) Phosphorylation Cell Based Assay; conditions: Homo sapiens, 2 hours, read-out: SET2 IC50
Method: SET-2 cells was purchased from DSMZ (Germany). RPMI1640 medium, Fetal Bovine Serum and 384-white sold flat-bottom small volume plate were purchased from Thermo Fisher Scientific (Waltham, MA). Phospho-STAT5 (Tyr694) HTRF kit was purchased from Perkin Elmer (Waltham, MA).
SET-2 cells were cultured in RPMI media with 20% FBS at 37° C. in humidified incubator supplied with 5% CO2. On the day of assay, the cells were centrifuged to remove the culture media and resuspended with prewarmed RPMI with 10% FBS. Testing compounds were prepared by serial dilution in DMSO and 50 nL/well test compounds were transferred to the 384 white low volume cell culture plate (Greiner Bio-one) by ECHO liquid handler (Labcyte). The cells were then dispensed with Multidrop (Thermo Fisher, Waltham, MA) at 10 μL/well (7×10^6 cells/mL) with 0.5% DMSO in the final assay. After the treated cells were incubated for 2 hours at 37° C./5% CO2 incubator, 4 μL/well supplemented lysis buffer (100× blocking buffer diluted 25 fold in 4× lysis buffer, Perkin Elmer) were added and incubated at room temperature for 90 min on orbital shaker at 600 rpm. Phospho-STAT5 Cryptate antibody and Phospho-STAT5 d2 antibody (1:1 vol/vol) were premixed and diluted 20 fold with in the detection buffer (Perkin Elmer). 4 μL of the premixed antibody solution were added to each well followed with 24 hours incubation at room temperature on orbital shaker at 600 rpm. The product activity was determined by measuring the fluorescence at 620 nm and 665 nm on Pherastar microplate reader (BMG Labtech). A ratio is calculated (665/620) for each well. Wells with DMSO only served as the positive controls and wells containing high concentration of control compound were used as negative controls. IC50 determination was performed by fitting the curve of percent control activity versus the log of the compound concentration using the GraphPad Prism 7.0 software.

pseudo-kinase domain (JH2) of human V617F mutant JAK2, sequence (O60674 536-812 V617F/W659A/W777A/F794H): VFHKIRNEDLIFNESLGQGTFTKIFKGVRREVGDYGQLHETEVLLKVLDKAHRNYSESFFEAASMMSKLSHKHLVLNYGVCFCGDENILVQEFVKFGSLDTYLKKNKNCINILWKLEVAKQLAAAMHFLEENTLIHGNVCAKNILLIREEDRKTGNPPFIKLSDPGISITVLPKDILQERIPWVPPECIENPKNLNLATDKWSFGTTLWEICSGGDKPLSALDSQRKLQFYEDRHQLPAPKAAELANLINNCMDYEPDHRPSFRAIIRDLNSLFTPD

For COCCNC(=O)c1ccc(-c2[nH]c3ncc4c(c3c2-c2ccc3c(cnn3C(C)C)c2)n([C@@H]2CC[C@@H](NC(=O)OC)C2)c(=O)n4C)cc1 [Example 19, Methyl ((1R,3R)-3-(8-(1-isopropyl-1H-indazol-5-yl)-7-(4-((2-methoxyethyl)carbamoyl)phenyl)-3-methyl-2-oxo-3,6-dihydroimidazo[4,5-d]pyrrolo[2,3-b]pyridin-1(2H)-yl)cyclopentyl)carbamate], the IC50 [1] was ≤ 10 nM, the IC50 [2] was > 1000 nM and the IC50 (FLT3 [3]) was 250 to 1250 nM. For the same compound, the “Selectivity FLT3/JH2 V617F” value (FLT3 [4]) was “**** (selectivity of >1750-fold to ≤5000-fold)”, the IC50 (TRKA [5]) was 1250 to 2500 nM and the “Selectivity TRKA/JH2 V617F” value (TRKA [6]) was “****** (selectivity of >12500-fold)”. For the same compound, the IC50 [7] was ≤ 300 nM.

In the case of Cn1cc(-c2[nH]c3ncc4c(c3c2-c2ccc3c(cnn3C)c2)n([C@H]2CC[C@@H](CC#N)CC2)c(=O)n4C)cn1 [Comparative Example C, reference compound], the IC50 [1] is reported as ≤ 10 nM, the IC50 (FLT3 [3]) is reported as < 25 nM and the “Selectivity FLT3/JH2 V617F” value (FLT3 [4]) is reported as “* (selectivity of ≤500-fold)”. For the same compound, the IC50 (TRKA [5]) was < 25 nM and the “Selectivity TRKA/JH2 V617F” value (TRKA [6]) was “* (selectivity of ≤500-fold)”.

In the case of CNC(=O)c1c(F)cc(-c2[nH]c3ncc4c(c3c2-c2cccc(F)c2)n([C@@H]2CC[C@@H](NC(=O)OC)C2)c(=O)n4C)cc1F [Example 3, Methyl ((1R,3R)-3-(7-(3,5-difluoro-4-(methylcarbamoyl)phenyl)-8-(3-fluorophenyl)-3-methyl-2-oxo-3,6-dihydroimidazo[4,5-d]pyrrolo[2,3-b]pyridin-1(2H)-yl)cyclopentyl)carbamate], the IC50 [1] is reported as ≤ 10 nM, the IC50 [2] is reported as > 1000 nM and the IC50 [7] is reported as > 800 nM.

COC(=O)N[C@@H]1CC[C@@H](n2c(=O)n(C)c3cnc4[nH]c(-c5ccc(C(=O)N6CC(OC)C6)c(F)c5)c(-c5ccc6c(cnn6C(C)C)c5)c4c32)C1 [Example 17, Methyl ((1R,3R)-3-(7-(3-fluoro-4-(3-methoxyazetidine-1-carbonyl)phenyl)-8-(1-isopropyl-1H-indazol-5-yl)-3-methyl-2-oxo-3,6-dihydroimidazo[4,5-d]pyrrolo[2,3-b]pyridin-1(2H)-yl)cyclopentyl)carbamate] was tested, and the IC50 [1] was ≤ 10 nM, the IC50 [2] was > 1000 nM and the IC50 [7] was > 800 nM.

In the case of CNC(=O)c1ccc(-c2[nH]c3ncc4c(c3c2-c2cccc(F)c2)n([C@@H]2CC[C@@H](NC(=O)OC)C2)c(=O)n4C)cc1F [Example 1, Methyl ((1R,3R)-3-(7-(3-fluoro-4-(methylcarbamoyl)phenyl)-8-(3-fluorophenyl)-3-methyl-2-oxo-3,6-dihydroimidazo[4,5-d]pyrrolo[2,3-b]pyridin-1(2H)-yl)cyclopentyl)carbamate], the IC50 [1] is reported as ≤ 10 nM, the IC50 [2] is reported as > 1000 nM and the IC50 [7] is reported as > 800 nM.

With COC(=O)N[C@@H]1CC[C@@H](n2c(=O)n(C)c3cnc4[nH]c(-c5ccc(C(=O)NC(C)C)c(F)c5)c(-c5cccc(F)c5)c4c32)C1 [Example 2, Methyl ((1R,3R)-3-(7-(3-fluoro-4-(isopropylcarbamoyl)phenyl)-8-(3-fluorophenyl)-3-methyl-2-oxo-3,6-dihydroimidazo[4,5-d]pyrrolo[2,3-b]pyridin-1(2H)-yl)cyclopentyl)carbamate] the IC50 [1] was ≤ 10 nM, the IC50 [2] was > 1000 nM and the IC50 [7] was > 800 nM.

CCn1c(=O)n(C2CCCC2)c2c3cc(-c4ccc(CN5CCC(S(C)(=O)=O)CC5)cc4)[nH]c3ncc21 [Comparative Example G, reference compound] was tested, and the IC50 [1] was > 1000 nM.

For COC(=O)N[C@@H]1CC[C@@H](n2c(=O)n(C)c3cnc4[nH]c(-c5cc(F)c(C(=O)NC6CC6)c(F)c5)c(-c5cccc(F)c5)c4c32)C1 [Example 4, Methyl ((1R,3R)-3-(7-(4-(cyclopropylcarbamoyl)-3,5-difluorophenyl)-8-(3-fluorophenyl)-3-methyl-2-oxo-3,6-dihydroimidazo[4,5-d]pyrrolo[2,3-b]pyridin-1(2H)-yl)cyclopentyl)carbamate], the IC50 [1] was ≤ 10 nM, the IC50 [2] was > 1000 nM and the IC50 [7] was > 800 nM.

Cn1c(=O)n(C2CCCC2)c2c3c(-c4ccccc4)c(-c4ccc(CN5CCC(S(C)(=O)=O)CC5)cc4)[nH]c3ncc21 [Comparative Example H, reference compound] was tested, and the IC50 [1] was ≤ 10 nM, the IC50 (FLT3 [3]) was 25 to 250 nM and the “Selectivity FLT3/JH2 V617F” value (FLT3 [4]) was “* (selectivity of ≤500-fold)”. For the same compound, the IC50 (TRKA [5]) was 25 to 250 nM, the “Selectivity TRKA/JH2 V617F” value (TRKA [6]) was “* (selectivity of ≤500-fold)” and the IC50 [7] was 300 to 800 nM.

For Cn1ncc2cc(-c3c(-c4ccc(CN5CCC(S(C)(=O)=O)CC5)cc4)[nH]c4ncc5c(c34)n(C3CCCC3)c(=O)n5C)ccc21 [Comparative Example I, reference compound], the IC50 [1] was ≤ 10 nM, the IC50 (FLT3 [3]) was < 25 nM and the “Selectivity FLT3/JH2 V617F” value (FLT3 [4]) was “* (selectivity of ≤500-fold)”. For the same compound, the IC50 (TRKA [5]) was < 25 nM, the “Selectivity TRKA/JH2 V617F” value (TRKA [6]) was “* (selectivity of ≤500-fold)” and the IC50 [7] was 300 to 800 nM.
